Source: PMC11310081, “Deep-learning-enabled antibiotic discovery through molecular de-extinction” (Nature Biomedical Engineering, 2024)
Values after ≈ are worked out from the molar mass of the structure shown. Peptide text beside a SMILES is read from it.

Legend:
[1] = system: HEK293T cells; settings: 24 h
Procedure, shortened: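 5,000 cells/well seeded a day ahead in DMEM with 10% FBS, then treated with peptides; viability by MTT (0.5 mg/ml, 4 h, 37 °C), formazan in acidic isopropanol read at 570 nm. Concentration causing 50% lysis from non-linear regression; three biological replicates, two technical each.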

[2] = system: E. faecium ATCC 700221 (vancomycin-resistant strain); type: cell-based, Enterococcus faecium; settings: ATCC 700221, 20 h
Excerpt: (§1) The following Gram-negative bacteria were used in our study: A. baumannii ATCC 19606, E. coli ATCC 11775, E. coli AIC221 (E. coli MG1655 phnE_2::FRT), E. coli AIC222 (E. coli MG1655 pmrA53 phnE_2::FRT (colistin resistant)), K. pneumoniae ATCC 13883, P. aeruginosa PAO1 and P. aeruginosa PA14. The following Gram-positive bacteria were also used in our study: S. aureus ATCC 12600, S. aureus ATCC BAA-1556 (methicillin-resistant strain), E. faecalis ATCC 700802 (vancomycin-resistant strain) and E. faecium ATCC 700221 (vancomycin-resistant strain). Bacteria were grown from frozen stocks and plated on Luria–Bertani (LB) or Pseudomonas isolation agar plates (P. aeruginosa strains) and incubated overnight at 37 °C. After the incubation period, a single colony was transferred to 5 ml of LB medium, and cultures were incubated overnight (16 h) at 37 °C. The following day, an inoculum was prepared by diluting the overnight cultures 1:100 in 5 ml of the respective media and incubating them at 37 °C until bacteria reached logarithmic phase (OD600 = 0.3–0.5).
(§2) The in vitro antimicrobial activity of the peptides was assessed by using the broth microdilution assay. […] Aqueous solutions of the peptides were added to the plate at concentrations ranging from 1 to 64 μmol l^−1. […] The optical density of the plates was measured at 600 nm using a spectrophotometer. All assays were done as three biological replicates.

[3] = system: K. pneumoniae ATCC 13883; type: cell-based, Klebsiella pneumoniae; settings: ATCC 13883, 20 h
Excerpt: as §1, §2

[4] = system: S. aureus ATCC 12600; type: cell-based, Staphylococcus aureus; settings: ATCC 12600, 20 h
Excerpt: as §1, §2

[5] = system: S. aureus ATCC BAA-1556 (methicillin-resistant strain); type: cell-based, Staphylococcus aureus; settings: ATCC BAA-1556, 20 h
Excerpt: as §1, §2

[6] = system: E. coli ATCC 11775; type: cell-based, Escherichia coli; settings: ATCC 11775, 20 h
Excerpt: as §1, §2

[7] = system: E. coli AIC221; type: cell-based, Escherichia coli; settings: AIC221, 20 h
Excerpt: as §1, §2

[8] = system: E. faecalis ATCC 700802 (vancomycin-resistant strain); type: cell-based, Enterococcus faecalis; settings: ATCC 700802, 20 h
Excerpt: as §1
as §2, with “All assays were done as three biological replicates.” left out

SMILES	CC50 [1] [µM]	TI (therapeutic index) [1]	Minimal inhibitory concentration, E. faecium ATCC700221-VRE [2] [µM]	Minimal inhibitory concentration, K. pneumoniae ATCC133883 [3] [µM]	Minimal inhibitory concentration, S. aureus ATCC12600 [4] [µM]	Minimal inhibitory concentration, S. aureus ATCC BAA-1556-MRSA [5] [µM]	Minimal inhibitory concentration, E. coli ATCC11775 [6] [µM]	Minimal inhibitory concentration, E. coli AIC221 [7] [µM]	Minimal inhibitory concentration, E. faecalis ATCC700802-VRE [8] [µM]
CC[C@H](C)[C@H](NC(=O)[C@@H](N)CC(C)C)C(=O)N[C@H](C(=O)N[C@@H](CS)C(=O)N[C@@H](Cc1ccccc1)C(=O)N[C@@H](Cc1ccccc1)C(=O)N[C@@H](CCCNC(=N)N)C(=O)N[C@@H](CCC(N)=O)C(=O)N[C@@H](CC(C)C)C(=O)N[C@@H](CCCCN)C(=O)N[C@@H](Cc1ccccc1)C(=O)N[C@@H](Cc1c[nH]cn1)C(=O)N[C@@H](Cc1ccccc1)C(=O)O)C(C)C [Megalocerin-1] (H-LIVCFFRQLKFHF-OH; N-terminus and C-terminus assumed)	> 128	> 16	8 (≈ 13.6 µg/mL)	64 (≈ 109 µg/mL)	–	–	–	–	–
CC[C@H](C)[C@H](NC(=O)[C@H](CO)NC(=O)[C@H](CCCNC(=N)N)NC(=O)[C@H](C)NC(=O)[C@H](Cc1c[nH]cn1)NC(=O)[C@H](CC(C)C)NC(=O)[C@H](CS)NC(=O)[C@H](C)NC(=O)[C@@H](N)CCCNC(=N)N)C(=O)N[C@@H](C)C(=O)N[C@@H](CCCNC(=N)N)C(=O)N[C@@H](CC(C)C)C(=O)N[C@@H](Cc1c[nH]cn1)C(=O)N[C@@H](CCCCN)C(=O)N[C@@H](CCCNC(=N)N)C(=O)N[C@@H](Cc1c[nH]c2ccccc12)C(=O)N[C@@H](CCCNC(=N)N)C(=O)N1CCC[C@H]1C(=O)N[C@H](C(=O)N[C@@H](Cc1c[nH]cn1)C(=O)N[C@@H](CCC(N)=O)C(=O)NCC(=O)N[C@@H](CC(C)C)C(=O)NCC(=O)N[C@@H](CC(C)C)C(=O)N[C@@H](CCCCN)C(=O)O)C(C)C [Mammuthusin-2] (H-RACLHARSIARLHKRWRPVHQGLGLK-OH; N-terminus and C-terminus assumed)	> 128	> 4	–	–	–	–	–	–	–
CC[C@H](C)[C@H](N)C(=O)N[C@@H](Cc1ccccc1)C(=O)N[C@@H](CC(C)C)C(=O)N[C@@H](Cc1c[nH]cn1)C(=O)N[C@@H](CC(C)C)C(=O)N[C@@H](CCCCN)C(=O)N[C@H](C(=O)N[C@@H](CC(C)C)C(=O)N[C@@H](CCCCN)C(=O)N[C@H](C(=O)N[C@H](C(=O)N[C@@H](CCCNC(=N)N)C(=O)N[C@@H](CC(C)C)C(=O)N[C@@H](CC(C)C)C(=O)O)[C@@H](C)CC)[C@@H](C)CC)[C@@H](C)CC [Elephasin-2] (H-IFLHLKILKIIRLL-OH; N-terminus and C-terminus assumed)	> 128	–	1 (≈ 1.73 µg/mL)	–	1 (≈ 1.73 µg/mL)	1 (≈ 1.73 µg/mL)	16 (≈ 27.7 µg/mL)	2 (≈ 3.47 µg/mL)	8 (≈ 13.9 µg/mL)
CC(C)C[C@H](NC(=O)CNC(=O)[C@H](CCCNC(=N)N)NC(=O)[C@H](CCCCN)NC(=O)[C@H](CCCNC(=N)N)NC(=O)[C@@H](N)CCCCN)C(=O)N[C@@H](CCCCN)C(=O)N[C@@H](CC(C)C)C(=O)N[C@@H](C)C(=O)N[C@H](C(=O)N[C@@H](C)C(=O)N[C@@H](CC(C)C)C(=O)N[C@@H](CO)C(=O)N[C@@H](CC(C)C)C(=O)N[C@@H](CC(N)=O)C(=O)N[C@@H](CC(N)=O)C(=O)N[C@@H](CCCCN)C(=O)N[C@@H](Cc1ccccc1)C(=O)O)[C@@H](C)O [Mylodonin-2] (H-KRKRGLKLATALSLNNKF-OH; N-terminus and C-terminus assumed)	> 128	–	–	–	–	–	–	–	–
